Reference: patent US20250082584A1, “TRANSDERMAL THERAPEUTIC SYSTEM FOR THE TRANSDERMAL ADMINISTRATION OF SELEXIPAG” (LTS LOHMANN THERAPIE-SYSTEME AG, priority 2022, published 2025)

Assay: Permeation of Selexipag and active metabolite MRE-269 through fresh human skin in modified Keshary-Chien diffusion cells
Assay type: in vitro ADME
Procedure: For determination of Selexipag and the Selexipag derived active metabolite MRE-269 permeated from fresh human skin tissue the following experiment was performed.
Modified Keshary-Chien diffusion cells were used for this experiment, in which fresh human skin was used as barrier between the donor and the acceptor part. The acceptor compartment contained the acceptor medium (0.9% NaCl+3% Vanillin+0.5% Methyl-β-cyclodextrin+30% Acetonitrile in aqua purificata), the donor chamber contained a liquid solution of Selexipag in oleic acid, dipropylene glycol, ethanol and aqua purificata. The liquid solution Composition 1 was applied as suspension, with undissolved Selexipag, whereas Composition 2 was centrifuged prior to application and only the clear centrifugate was applied. The composition of the selexipag-containing coating Compositions 1 and 2 of are summarized below.
Fresh human skin from plastic surgery was used (upper arm, person). […]
The samples of acceptor solution were filtrated with syringe filters and analyzed with HPLC. Quantification of Selexipag was performed with an external standard. […]
After 168 hrs of permeation the diffusion cells were dismantled, and the skin was rinsed with aqua purificata to remove residuals of the liquid solutions. […] The extracts were then diluted with acceptor medium, filtrated and analyzed with HPLC analogue to the permeation samples.

- Onset of release of MRE-269 compared to Selexipag in acceptor medium (FIG. 7 vs FIG. 8) (fresh human skin, acceptor medium, cumulative data): starts slower
SMILES: CC(C)N(CCCCOCC(=O)O)c1cnc(-c2ccccc2)c(-c2ccccc2)n1 [MRE-269]
- Detection of active metabolite MRE-269 in permeation samples and skin extraction samples (liquid Selexipag solutions (Compositions 1 and 2) on fresh human skin, 500 μm, 32° C., sampling 24-48-120-144-168 hrs, HPLC): detected at each sampling timepoint in all permeation samples as well as in the skin extraction samples
